Results on 13 molecules are retold here after patent publication US12577250B2, “1,2,4-triazolone derivative as DHODH inhibitor, and preparation method therefor and use thereof” (WIGEN BIOMEDICINE TECHNOLOGY (SHANGHAI) CO., LTD., priority 2021, dated 2026).

One data set has as its system MV-4-11 cells. Description: Anti-proliferative activity on MV-4-11 cells (CellTiter-Lumi, 72 h). In kind it is cell-based. Particulars: read-out: Cell anti-proliferative activity IC50 MV-4-11. Here is the method: MV-4-11 cells were seeded into a 384-well plate (Fisher 142762) at 3000 cells per well. The next day, serially diluted compounds were added, and 72 h after the addition, CellTiter-Lumi (Beyotime C0068XL) was added to measure the ATP content in the cells. The growth of the cells was evaluated, and IC50 of the compounds against cell growth was calculated.

Data set [1] can be described thus: Pharmacokinetic evaluation in mice. The data set is classed as in vivo, male ICR mice. Here is the method:
The compounds were administered by intravenous injection at a dose of 2 mg/kg and oral gavage at a dose of 10 mg/kg (0.5% CMC-Na suspension). 15 male ICR mice were selected, and each mouse was subjected to blood collection at 3 discrete time points, with 3 mice per time point. The time points of sampling were as follows: before administration, and 5 min, 15 min, 30 min, 1 h, 3 h, 5 h, 8 h, 12 h and 24 h after administration. 80 μL of blood was collected from the orbits or hearts of the mice at each time point after administration. All whole blood samples were collected in tubes containing EDTAK2 and centrifuged (1500-1600 rmp/min) at 4° C. for 10 min to isolate plasma, which was then stored in a refrigerator at −90° C. to −60° C. for sample analysis. The compound concentration in the plasma was determined by liquid chromatography-tandem mass spectrometry, and the corresponding pharmacokinetic parameters were obtained according to a plasma concentration-time curve.

In a further data set the target is DHODH (Homo sapiens, UniProt Q02127). Description: Assay against enzyme activity of DHODH (DCIP absorption at 600 nm). In kind it is biochemical. As for the experimental part:
The enzyme activity of DHODH was assayed through a cascade reaction to determine its ability to catalyze the oxidation of a natural substrate DHO (dihydroorotic acid) to orotic acid while reducing coenzyme Q. The enzyme activity of DHODH was indirectly detected by assaying the ability of the coenzyme Q to reduce a chromogenic substrate DCIP. After the compound and an enzyme reaction mixture were incubated for 5 min, a reaction substrate DHO was added to start the reaction, and the enzyme activity was assayed by assaying the absorption at 600 nm to detect the DCIP exhaustion in a timed manner.

In a further data set the test system is THP-1 cells. Description: Anti-proliferative activity on THP-1 cells (CellTiter-Lumi, 72 h). In kind it is cell-based. Particulars: read-out: Cell anti-proliferative activity IC50 THP-1. As for the experimental part:
THP-1 cells were seeded into a 384-well plate (Fisher 142762) at 3000 cells per well. The next day, serially diluted compounds were added, and 72 h after the addition, CellTiter-Lumi (Beyotime C0068XL) was added to measure the ATP content in the cells. The growth of the cells was evaluated, and IC50 of the compounds against cell growth was calculated.

[2] abbreviates: male, ICR, mouse, plasma, iv, 2 mg/kg.
Setting [3] is: male, ICR, mouse, plasma, po, 10 mg/kg (0.5% CMC-Na suspension).
Where [4] appears, read: Homo sapiens, MV4-11, 72 h, class symbols.

Read-outs that look alike come from different tables or passages of the source.

DHODH, sequence (Q02127 whole entry): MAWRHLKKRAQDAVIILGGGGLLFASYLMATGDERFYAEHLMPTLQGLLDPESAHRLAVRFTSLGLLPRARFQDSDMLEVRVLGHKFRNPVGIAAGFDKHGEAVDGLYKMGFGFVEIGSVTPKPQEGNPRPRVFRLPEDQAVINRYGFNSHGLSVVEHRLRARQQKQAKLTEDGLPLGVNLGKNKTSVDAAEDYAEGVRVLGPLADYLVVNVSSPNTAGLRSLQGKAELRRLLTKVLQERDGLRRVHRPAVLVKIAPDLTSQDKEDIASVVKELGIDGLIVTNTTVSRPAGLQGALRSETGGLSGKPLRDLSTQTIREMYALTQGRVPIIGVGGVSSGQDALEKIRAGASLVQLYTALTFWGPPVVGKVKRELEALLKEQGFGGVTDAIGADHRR

On to `C[C@H](Oc1cc(-n2nc3n(c2=O)CCC2(CC2)C3)c(F)cc1C(=O)Nc1c(F)cccc1Cl)C(F)(F)F` [Compound 1, (S)—N-(2-chloro-6-fluorophenyl)-5-fluoro-4-(3′-oxo-5′,6′-dihydro-3′H-spiro[cyclopropane-1,7-[1,2,4]triazolo[4,3-α]pyridin]-2′(8′H)-yl)-2-((1,1,1-trifluoropropan-2-yl)oxy)benzamide], for which the IC50 in the data set with MV-4-11 cells (Homo sapiens, MV4-11, 72 h) was 1.27 nM. Besides, in data set [1] (setting [2]), the AUC(0-t) is 2530 ng·h/mL, the clearance amounted to 13.2 mL/min/kg and the half-life was 1.79 h. Besides, the Vd in data set [1] (male, ICR, mouse, plasma, iv, 2 mg/kg, read-out: Vss) worked out at 1.66 L/kg. Moreover, in data set [1] (setting [3]), the AUC(0-t) stood at 7780 ng·h/mL, the peak level (Cmax) was 2240 ng/mL, the Tmax came to 0.25 h and the half-life was 2.07 h. The “oral bioavailability (in words)” value in data set [1] (po) is listed as “good oral bioavailability”. This molecule also had a F in data set [1] (po 10 mg/kg vs iv 2 mg/kg) of 61.7%. At DHODH, this molecule displayed a concentration for half-maximal inhibition (IC50) of under 50 nM. Moreover, the IC50 in the data set on THP-1 cells (Homo sapiens) stood at 27.6 nM.
For the molecule `C[C@H](Oc1cc(-n2nc3n(c2=O)CC2(CC2)C3)c(F)cc1C(=O)Nc1c(F)cccc1Cl)C1CCCCC1` [Compound 49], the concentration for half-maximal inhibition (IC50) in the data set with MV-4-11 cells (setting [4]) is at most 50 nM; at DHODH, under 50 nM.
As to `CCC[C@H](C)Oc1cc(-n2nc3n(c2=O)CC2(CC2)C3)c(F)cc1C(=O)Nc1c(F)cccc1Cl` [Compound 50], the values for the IC50 with MV-4-11 cells (setting [4]) and on DHODH were at most 50 nM and under 50 nM, respectively.
`C[C@H](Oc1cc(-n2nc3n(c2=O)CCCC2(CC2)C3)c(F)cc1C(=O)Nc1c(F)cccc1Cl)C(F)(F)F` [Compound 51]: the IC50 in the data set on MV-4-11 cells (Homo sapiens, MV4-11, 72 h) was 5.45 nM; against DHODH it was under 50 nM; in the data set on THP-1 cells (Homo sapiens) it was 47.6 nM.
`C[C@H](Oc1cc(-n2nc3n(c2=O)CCCC2(CC2)C3)c(F)cc1C(=O)Nc1c(F)cccc1Cl)C1CCCCC1` [Compound 52]: the IC50 in the data set on MV-4-11 cells (setting [4]) is at most 50 nM; at DHODH, under 50 nM.
In the case of `CCC[C@H](C)Oc1cc(-n2nc3n(c2=O)CCCC2(CC2)C3)c(F)cc1C(=O)Nc1c(F)cccc1Cl` [Compound 53], the IC50 in the data set on MV-4-11 cells (Homo sapiens, MV4-11, 72 h) is 6.89 nM; against DHODH it was under 50 nM.
For `C[C@H](Oc1nc(-n2nc3n(c2=O)CCC2(CC2)C3)c(F)cc1C(=O)Nc1c(F)cccc1Cl)C(F)(F)F` [Compound 54, (S)—N-(2-chloro-6-fluorophenyl)-5-fluoro-4-(3′-oxo-5′,6′-dihydro-3′H-spiro[cyclopropane-1,7-[1,2,4]triazolo[4,3-α]pyridin]-2′(8′H)-yl)-2-((1,1,1-trifluoropropan-2-yl)oxy)benzamide], the IC50 with MV-4-11 cells (Homo sapiens, MV4-11, 72 h) was 0.51 nM; against DHODH, under 50 nM; with THP-1 cells (Homo sapiens) it was 24.5 nM.
Turning to `C[C@H](Oc1nc(-n2nc3n(c2=O)CCC2(CC2)C3)c(F)cc1C(=O)Nc1c(F)cccc1Cl)C1CCCCC1` [Compound 55], the IC50 in the data set on MV-4-11 cells (Homo sapiens, MV4-11, 72 h) was 1.45 nM; at DHODH, under 50 nM.
Regarding `CCC[C@H](C)Oc1nc(-n2nc3n(c2=O)CCC2(CC2)C3)c(F)cc1C(=O)Nc1c(F)cccc1Cl` [Compound 56], the IC50 is 1.97 nM in the data set on MV-4-11 cells (Homo sapiens, MV4-11, 72 h) and under 50 nM at DHODH.
On to `COc1ncc(C)c(NC(=O)c2cc(F)c(-n3nc4n(c3=O)CCC3(CC3)C4)nc2O[C@@H](C)C(F)(F)F)c1Cl` [Compound 57], for which the IC50 in the data set with MV-4-11 cells (Homo sapiens, MV4-11, 72 h) is 0.32 nM; against DHODH, under 50 nM.
For the molecule `COc1ncc(C)c(NC(=O)c2cc(F)c(-n3nc4n(c3=O)CCC3(CC3)C4)nc2O[C@@H](C)C2CCCCC2)c1Cl` [Compound 58], the concentration for half-maximal inhibition (IC50) in the data set with MV-4-11 cells (Homo sapiens, MV4-11, 72 h) was 0.75 nM; against DHODH, under 50 nM.
On the same counts, the results for `CCC[C@H](C)Oc1nc(-n2nc3n(c2=O)CCC2(CC2)C3)c(F)cc1C(=O)Nc1c(C)cnc(OC)c1Cl` [Compound 59] are 2.05 nM and under 50 nM.
With BAY-2402234 [reference compound], the IC50 in the data set on MV-4-11 cells worked out at 3.82 nM; in the data set with THP-1 cells, 35.6 nM.
